Consider ten molecules from patent US20240207238A1, “INHIBITORS OF PROTEIN TYROSINE PHOSPHATASE, COMPOSITIONS, AND METHODS OF USE” (BRISTOL-MYERS SQUIBB COMPANY, priority 2022, published 2024).

Experiment [1] concerns phosphorylated STAT1 in B16-F10 cells. Description: Phospho-STAT1 (Tyr701) HTRF assay in B16-F10 cells. The experiment is classed as cell-based. The conditions noted are these: 100 ng/mL mouse IFN-gamma, 1 hour, read-out: pSTAT1 HTRF B16 EC50. As for the experimental part:
B16-F10 cells (ATCC, Manassas, VA, #CRL-6475) were cultured in DMEM growth medium (ThermoFisher Scientific, Waltham, MA, #11995-040) supplemented with 10% heat-inactivated FBS (ThermoFisher Scientific, #16140-071) and 1% pen/strep (ThermoFisher Scientific, #15140-122). The cells were seeded into a white opaque 384-well tissue culture treated microplate (PerkinElmer, Waltham, MA, #6007688) at a density of 10,000 cells/well in 20 uL total volume and incubated overnight at 37 C and 5% CO2. 30 nL of compounds dissolved in DMSO were then transferred from a source plate into target wells with the Echo650 acoustic liquid handler (Beckman Coulter, Indianapolis, IN). Negative control wells received 30 nL of DMSO only (0.15% final concentration). Plates were returned to the incubator for 1 hour and then cells were treated with either 5 uL of growth medium or 5 uL of growth medium containing 500 ng/ml of recombinant mouse IFN-gamma protein (R&D Systems, Minneapolis, MN, #485-MI/CF, 100 ng/mL final concentration) using the Assist automated pipetting platform (INTEGRA Biosciences, Hudson, NH). Plates were incubated at 37 C for 1 hour and assayed for phosphorylated STAT1 protein levels with the phospho-STAT1 (Tyr701) HTRF kit (Cisbio, Bedford, MA, #63ADK026PEH) according to the manufacturer's instructions.

The target in experiment [2] is T1, PTPN2 (Homo sapiens (Human), UniProt P17706). Description: Phosphatase activity assay using DiFMUP as substrate. The experiment is classed as biochemical. To be noted: 0.15 nM PTPN2, read-out: PTPN2 BChem DIFMUP IC50. As for the experimental part:
The PTPN2 biochemical assay was performed as follows, a 5× stock solution of human PTPN2 (SRP5075, MilliporeSigma, Burlington, MA) and a 1.25× stock solution of DiFMUP (D6567, ThermoFisher Scientific, Waltham, MA), were prepared in 1× reaction buffer consisting of 50 mM HEPES, pH 7.4, 1 mM EDTA, 150 mM NaCl, 0.2 mg/mL BSA, 100 U/mL catalase and 10 mM DTT. […] of the DiFMUP substrate solution, for a final concentration of […] DiFMUP substrate, was added to a Corning 3574 384-well, white, non-binding surface microtiter plate containing […] of serially diluted test compounds prepared in DMSO. The reactions were started with the addition of […] of the enzyme solution, for a final PTPN2 concentration of 0.15 nM, and monitored every 105 seconds for 60 minutes at MEX 360/2EM 460 in a BioTek Synergy HTX plate reader (Agilent Technologies, Santa Clara, CA) at room temperature. The initial linear portions of the progress curves were fit according to a linear equation to yield the slopes and converted to % inhibition based on a value of 100% activity for the no inhibitor treated control. IC50 values of each compound were obtained by fitting the % inhibition-compound concentration curves using Dotmatics software (Dotmatics, Bishops Stortford, Hertfordshire, England).
(§1) For IC50 data, High DDT concentration and/or DiFMUP substrate assays were used; a skilled artisan may use either assay.

For experiment [3], the system named is B16-F10 cells. Description: Cell proliferation assay (CellTiter-Glo) in B16-F10 cells with IFN-gamma. It is filed as cell-based. To be noted: 10 ng/ml mouse IFN-gamma, read-out: Prolif. 5d B16 GI50.
For experiment [4], the target named is T1, PTPN2. Briefly: PTPN2 biochemical assay, high DTT (PhosphoSens). To be noted: high DTT concentration assay; read-out: PTPN2 BChem HIGHDTT IC50. As for the experimental part: A PhosphoSens® kinase assay was performed as described by the vendor (AssayQuant Technologies, Marlborough, MA). Briefly, 1000× solutions of compounds were prepared in DMSO via serial dilution of the 10 mM DMSO stocks using 3-fold intervals in a 384-well reagent plate. 50 nL of the compound dilution series was then added to the corresponding wells of a 384-well assay plate. […] Finally, […] of 5×PTPN2 enzyme stock was added to each well of the assay plate for a final enzyme concentration of 150 pM. Reaction progress curves were collected by sampling fluorescence intensity at the excitation wavelength 360 nm (Quex360) and emission wavelength 480 nm (λem480) every 71 seconds for one hour using a Synergy H4 plate reader (BioTek Instruments/Agilent Technologies, Winooski, VT) at room temperature.
as §1

Read-outs that look alike come from different tables or passages of the source. A value given as a limit tells only on which side of the number the result lay.

T1 sequence (P17706 whole entry): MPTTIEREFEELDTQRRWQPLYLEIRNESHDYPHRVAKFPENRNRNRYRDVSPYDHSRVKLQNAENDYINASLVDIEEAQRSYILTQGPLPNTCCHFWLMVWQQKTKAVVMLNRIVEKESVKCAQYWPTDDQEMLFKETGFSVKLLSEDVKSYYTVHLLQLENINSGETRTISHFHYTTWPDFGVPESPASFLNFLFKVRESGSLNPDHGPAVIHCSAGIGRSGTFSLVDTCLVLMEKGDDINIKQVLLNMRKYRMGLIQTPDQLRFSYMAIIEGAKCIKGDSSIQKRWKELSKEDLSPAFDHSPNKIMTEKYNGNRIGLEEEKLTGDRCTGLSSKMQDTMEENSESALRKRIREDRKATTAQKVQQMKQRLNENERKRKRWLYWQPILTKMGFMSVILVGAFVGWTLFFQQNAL

In the case of “5-(4-(((4,6-dimethylpyridin-2-yl)amino)methyl)-6-fluoro-1H-indazol-7-yl)-1,2,5-thiadiazolidin-3-one 1,1-dioxide [Example 6]”, in experiment [1], the EC50 was 3690 nM. The IC50 in experiment [2] is 83 nM. In experiment [3], the GI50 came to 3260 nM.

For the molecule “5-(6-fluoro-4-(((4-methoxy-5-methylpyridin-2-yl)amino)methyl)-1H-indazol-7-yl)-1,2,5-thiadiazolidin-3-one 1,1-dioxide [Example 7]”, the EC50 in experiment [1] is greater than 15000 nM. The IC50 in experiment [2] came out at 199 nM. For the same molecule, the GI50 in experiment [3] is greater than 15000 nM.

As to “5-(6-fluoro-4-(((5-methoxypyridin-2-yl)amino)methyl)-1H-indazol-7-yl)-1,2,5-thiadiazolidin-3-one 1,1-dioxide [Example 2]”, the figures for the IC50 in experiment [4] and in experiment [2] were 42 nM and 24 nM, respectively. Further, the EC50 in experiment [1] is 1880 nM. Besides, the GI50 in experiment [3] is 880 nM.

“5-[6-fluoro-4-[[(3-methyl-2-pyridyl) amino] methyl]-1H-indazol-7-yl]-1,1-dioxo-1,2,5-thiadiazolidin-3-one [Example 10]”: the EC50 in experiment [1] was 14000 nM. The IC50 in experiment [2] was 16 nM. Further, the concentration for 50% growth inhibition (GI50) in experiment [3] was 3970 nM.

Take “5-[6-fluoro-4-[[(4-methoxy-2-pyridyl)amino]methyl]-1H-indazol-7-yl]-1,1-dioxo-1,2,5-thiadiazolidin-3-one [Example 3]”: the IC50 in experiment [4] amounted to 6 nM; in experiment [2], 9 nM. Besides, the EC50 in experiment [1] was determined as 764 nM. Moreover, in experiment [3], the GI50 is 350 nM.

As to “5-[6-fluoro-4-[[(4-methyl-2-pyridyl)amino]methyl]-1H-indazol-7-yl]-1,1-dioxo-1,2,5-thiadiazolidin-3-one [Example 5]”, the IC50 in experiment [4] was determined as 5 nM; in experiment [2] it was 8 nM. Also, the EC50 in experiment [1] is 440 nM. For the same molecule, the GI50 in experiment [3] was determined as 166 nM.

For the molecule “5-[6-fluoro-4-[[(6-methoxy-2-pyridyl)amino]methyl]-1H-indazol-7-yl]-1,1-dioxo-1,2,5-thiadiazolidin-3-one [Example 1]”, the IC50 in experiment [4] stood at 5 nM; in experiment [2] it was 2 nM. In addition, the concentration giving a half-maximal response (EC50) in experiment [1] was 287 nM. In experiment [3], the GI50 turned out to be 160 nM.

Turning to `O=C1CN(c2c(F)cc(CNc3cc(C4CC4)ccn3)c3cn[nH]c23)S(=O)(=O)N1` [Example 4, 5-[4-[[(4-cyclopropyl-2-pyridyl)amino]methyl]-6-fluoro-1H-indazol-7-yl]-1,1-dioxo-1,2,5-thiadiazolidin-3-one], the IC50 in experiment [4] is 1 nM; in experiment [2], 2 nM. In addition, the EC50 in experiment [1] came out at 3120 nM. In addition, the GI50 in experiment [3] (120 h) stood at 2690 nM.

As to `Cc1cc(NCc2cc(F)c(N3CC(=O)NS3(=O)=O)c3[nH]ncc23)ncc1C#N` [Example 8, 6-[[6-fluoro-7-(1,1,4-trioxo-1,2,5-thiadiazolidin-2-yl)-1H-indazol-4-yl]methylamino]-4-methyl-pyridine-3-carbonitrile], in experiment [1], the EC50 amounted to 9210 nM. The IC50 in experiment [2] is 67 nM. For the same molecule, the GI50 in experiment [3] (120 h) was greater than 15000 nM.

On to `COc1cc(C)nc(NCc2cc(F)c(N3CC(=O)NS3(=O)=O)c3[nH]ncc23)c1` [Example 9, 5-[6-fluoro-4-[[(4-methoxy-6-methyl-2-pyridyl)amino]methyl]-1H-indazol-7-yl]-1,1-dioxo-1,2,5-thiadiazolidin-3-one], for which the EC50 in experiment [1] turned out to be 91 nM. Also, the IC50 in experiment [2] is 1 nM. For the same molecule, the GI50 in experiment [3] (120 h) worked out at 20 nM.
